Experimental data from ChEMBL document CHEMBL5131570, “Discovery of Potent Small-Molecule USP8 Inhibitors for the Treatment of Breast Cancer through Regulating ERα Expression” (J Med Chem, 2022).
pIC50, pKd: −log10 of the molar value. Activity calls are given as the source filed them. The calls are words filed in the database; no cut-off is given here.

Columns and labels:
[1] = target: T1, Ubiquitin carboxyl-terminal hydrolase 8 (Homo sapiens, UniProt P40818); test: Inhibition of N-terminal His6-tagged USP8 (unknown origin) catalytic domain (734 to 1110 residues) expressed in Escherichia coli BL21 (DE3) cells assessed as deubiquitinating activity using ubiquitin-rhodamine -110 as substrate incubated for 30 mins followed by substrate addition measured after 30 mins by ubiquitin-rhodamine-110 based fluorometric assay
T1 sequence (P40818 whole entry): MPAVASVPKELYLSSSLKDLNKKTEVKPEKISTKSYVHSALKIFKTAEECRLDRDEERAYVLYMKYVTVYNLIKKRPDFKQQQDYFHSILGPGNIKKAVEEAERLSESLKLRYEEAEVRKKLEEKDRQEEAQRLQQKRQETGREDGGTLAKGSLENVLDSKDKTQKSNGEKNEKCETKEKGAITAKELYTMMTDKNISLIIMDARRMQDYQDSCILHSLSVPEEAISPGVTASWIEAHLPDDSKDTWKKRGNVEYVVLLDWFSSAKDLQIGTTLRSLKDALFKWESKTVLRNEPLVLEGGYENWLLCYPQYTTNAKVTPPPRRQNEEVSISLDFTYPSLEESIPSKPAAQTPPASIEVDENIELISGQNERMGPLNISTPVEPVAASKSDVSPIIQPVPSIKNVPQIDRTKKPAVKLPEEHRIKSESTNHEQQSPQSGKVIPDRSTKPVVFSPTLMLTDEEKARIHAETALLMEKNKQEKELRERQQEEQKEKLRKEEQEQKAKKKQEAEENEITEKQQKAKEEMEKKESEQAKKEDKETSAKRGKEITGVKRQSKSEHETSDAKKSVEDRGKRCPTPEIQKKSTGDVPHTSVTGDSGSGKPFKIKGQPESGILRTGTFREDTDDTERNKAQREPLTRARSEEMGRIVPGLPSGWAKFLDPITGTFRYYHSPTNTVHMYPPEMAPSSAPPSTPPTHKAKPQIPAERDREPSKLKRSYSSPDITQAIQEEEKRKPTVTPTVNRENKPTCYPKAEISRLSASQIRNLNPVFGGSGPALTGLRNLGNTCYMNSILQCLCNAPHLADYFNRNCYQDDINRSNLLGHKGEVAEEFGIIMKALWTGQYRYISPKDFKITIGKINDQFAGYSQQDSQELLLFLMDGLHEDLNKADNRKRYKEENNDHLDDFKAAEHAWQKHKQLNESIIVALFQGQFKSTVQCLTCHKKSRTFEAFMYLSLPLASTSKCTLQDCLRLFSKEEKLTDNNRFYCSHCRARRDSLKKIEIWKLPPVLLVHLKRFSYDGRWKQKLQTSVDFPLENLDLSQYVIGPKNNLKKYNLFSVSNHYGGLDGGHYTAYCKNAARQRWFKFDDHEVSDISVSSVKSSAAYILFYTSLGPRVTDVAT

[2] = target: T2, Ubiquitin carboxyl-terminal hydrolase 7 (Homo sapiens, UniProt Q93009); test: Inhibition of USP7 (unknown origin) […]
T2 sequence (Q93009 whole entry): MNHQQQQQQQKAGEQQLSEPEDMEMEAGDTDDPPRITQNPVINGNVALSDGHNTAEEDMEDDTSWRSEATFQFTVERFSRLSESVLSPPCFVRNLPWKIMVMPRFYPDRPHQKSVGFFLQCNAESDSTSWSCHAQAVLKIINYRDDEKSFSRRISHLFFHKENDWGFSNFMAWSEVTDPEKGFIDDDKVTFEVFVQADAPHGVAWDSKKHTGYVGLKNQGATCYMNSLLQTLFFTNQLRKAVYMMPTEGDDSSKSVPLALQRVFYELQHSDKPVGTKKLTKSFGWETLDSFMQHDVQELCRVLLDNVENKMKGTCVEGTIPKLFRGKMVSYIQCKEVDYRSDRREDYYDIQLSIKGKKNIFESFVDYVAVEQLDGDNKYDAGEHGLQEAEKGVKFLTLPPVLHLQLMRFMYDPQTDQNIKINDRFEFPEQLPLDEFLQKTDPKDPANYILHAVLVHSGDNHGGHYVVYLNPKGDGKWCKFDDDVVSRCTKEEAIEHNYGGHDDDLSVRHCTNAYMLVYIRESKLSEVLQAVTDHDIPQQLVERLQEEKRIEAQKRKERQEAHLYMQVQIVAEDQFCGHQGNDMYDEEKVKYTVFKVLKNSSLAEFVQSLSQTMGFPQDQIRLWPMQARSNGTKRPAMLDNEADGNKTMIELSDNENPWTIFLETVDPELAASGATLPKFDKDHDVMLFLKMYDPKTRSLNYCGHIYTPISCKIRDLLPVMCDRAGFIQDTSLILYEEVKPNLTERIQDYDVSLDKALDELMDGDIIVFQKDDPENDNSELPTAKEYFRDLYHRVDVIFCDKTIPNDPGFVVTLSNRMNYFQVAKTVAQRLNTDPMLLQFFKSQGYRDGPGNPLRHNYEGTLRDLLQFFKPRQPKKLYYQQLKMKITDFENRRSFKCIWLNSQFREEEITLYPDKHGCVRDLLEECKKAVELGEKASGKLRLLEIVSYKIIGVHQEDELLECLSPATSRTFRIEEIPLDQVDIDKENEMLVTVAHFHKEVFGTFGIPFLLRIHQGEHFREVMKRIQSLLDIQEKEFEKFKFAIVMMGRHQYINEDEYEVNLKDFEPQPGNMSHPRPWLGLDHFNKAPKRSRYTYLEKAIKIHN

[3] = target: T1, Ubiquitin carboxyl-terminal hydrolase 8; test: Inhibition of N-terminal His6-tagged USP8 (unknown origin) expressed in Escherichia coli BL21 (DE3) cells using ubiquitin-rhodamine -110 as substrate incubated for 15 mins followed by substrate addition measured after 1 hrs by ubiquitin-rhodamine-110 based fluorometric assay
[4] = target: T1, Ubiquitin carboxyl-terminal hydrolase 8; test: Inhibition of human full length USP8 overexpressed in baculovirus-infected insect cells using ubiquitin-C-terminal 7-amido-4-methylcoumarin as substrate by fluorescence spectroscopy
[5] = target: T2, Ubiquitin carboxyl-terminal hydrolase 7; test: Inhibition of human full length USP7 overexpressed in baculovirus-infected insect cells using ubiquitin-C-terminal 7-amido-4-methylcoumarin as substrate by fluorescence spectroscopy
[6] = target: NAD(P)H dehydrogenase [quinone] 1 (Homo sapiens) (UniProt P15559); test: Substrate activity at NQO1 (unknown origin) assessed as reduction in NADPH level measured per umol of NQO1 at 20 uM in presence of NADPH by absorbance based analysis
Sequence of NAD(P)H dehydrogenase [quinone] 1 (Homo sapiens) (P15559 whole entry): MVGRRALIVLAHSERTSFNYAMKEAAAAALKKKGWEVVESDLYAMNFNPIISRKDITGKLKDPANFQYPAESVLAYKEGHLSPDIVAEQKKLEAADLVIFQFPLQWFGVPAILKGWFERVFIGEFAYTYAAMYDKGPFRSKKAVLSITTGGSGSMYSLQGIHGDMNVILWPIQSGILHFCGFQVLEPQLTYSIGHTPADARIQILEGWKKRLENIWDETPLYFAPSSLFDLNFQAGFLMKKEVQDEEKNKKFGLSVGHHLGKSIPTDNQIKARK

[7] = test system: MCF7; test: Antiproliferative activity against human MCF7 cells assessed as reduction in colony formation at 3 uM incubated for 7 days by crystal violet staining based colony formation assay; format: functional, cell-based; settings: time 7.0 day
[8] = target: T1, Ubiquitin carboxyl-terminal hydrolase 8; test: Binding affinity to N-terminal His6-tagged USP8 catalytic domain (734 to 1110 residues) (unknown origin) expressed in Escherichia coli BL21 (DE3) cells by surface plasmon resonance method

Row | pIC50 [1] | SMILES | further results
1 | 4.78 | COc1c(O)cc(O)c2c(=O)cc(-c3ccc(N4CCN(C)CC4)cc3)oc12 | 
2 |  | COc1ccc(N2CCN(C(=S)Nc3ccc([N+](=O)[O-])cc3)CC2)c(N)c1 | pIC50 [2]: 4.98; pIC50 [3]: 5.59
3 | 4.79 | COc1c(O)cc(O)c2c(=O)cc(-c3ccc(N4CCCC4)cc3)oc12 | 
4 | 4.75 | Cc1n[nH]c(C)c1Oc1c(O)cc(O)c2c(=O)cc(-c3ccc(N4CCCNCC4)cc3)oc12 | 
5 | 4.74 | COc1c(O)cc(O)c2c(=O)cc(-c3ccc(N4CCOCC4)cc3)oc12 | 
6 |  | N#Cc1nc2c(nc1C#N)-c1ccccc1/C2=N\OCc1ccccc1 | pIC50 [4]: 6.07
7 | 4.79 | Cc1n[nH]c(C)c1Oc1c(O)cc(O)c2c(=O)cc(-c3ccc(N4CCN(C(C)C)CC4)cc3)oc12 | 
8 | 4.34 | COc1c(O)cc(O)c2c(=O)cc(-c3ccc(N4CCN(CCO)CC4)cc3)oc12 | 
9 | 4.79 | O=c1cc(-c2ccc(N3CCCNCC3)cc2)oc2c(OC3CCCCC3)c(O)cc(O)c12 | 
10 | 4.44 | COc1c(O)cc(O)c2c(=O)cc(-c3ccc(N4CCC(O)CC4)cc3)oc12 | 
11 | 4.61 | CC(C)Oc1c(O)cc(O)c2c(=O)cc(-c3ccc(N4CCCNCC4)cc3)oc12 | 
12 |  | N#Cc1cc2c(cc1C#N)-c1ccccc1C2=O | pIC50 [5]: 5.46; pIC50 [4]: 6.54
13 | 5.66 | COc1c(O)cc(O)c2c(=O)cc(-c3ccc(N4CCN(C=O)CC4)cc3)oc12 | 
14 | 4.81 | CCN1CCN(c2ccc(-c3cc(=O)c4c(O)cc(O)c(Oc5c(C)n[nH]c5C)c4o3)cc2)CC1 | 
15 | 5.46 | Cc1n[nH]c(C)c1Oc1c(O)cc(O)c2c(=O)cc(-c3ccc(N4CCN(c5ccccc5)CC4)cc3)oc12 | 
16 |  | CCO/N=C1/c2ccccc2-c2nc(C#N)c(C#N)nc21 | Activity [6]: 1300 µmol/min; Activity [7]: Active
17 | 4.63 | Cc1n[nH]c(C)c1Oc1c(O)cc(O)c2c(=O)cc(-c3ccc(N4CCN(CCO)CC4)cc3)oc12 | 
18 | 4.50 | COc1c(O)cc(O)c2c(=O)cc(-c3ccc(N4CCCNCC4)cc3)oc12 | pKd [8]: 4.36
19 | 5.29 | Cc1n[nH]c(C)c1Oc1c(O)cc(O)c2c(=O)cc(-c3ccc(N4CCN(C(=O)c5ccco5)CC4)cc3)oc12 | 
20 |  | C=CCO/N=C1\c2ccccc2-c2nc(C#N)c(C#N)nc21 | pIC50 [4]: 6.25
21 | 4.36 | COc1c(O)cc(O)c2c(=O)cc(-c3ccc(N(CCO)CCO)cc3)oc12 | 
